This passage reports melting point results from a melting point compilation (Tetko et al.; mined from patent text by program, amines drawn as free bases though some values may be those of a salt).

As for `COc1cc(C(=O)C=Cc2ccccn2)cc(OC)c1OC`, the melting point (commonly the temperature, or range, at which the solid turns liquid) was in the range of 94 to 95 °C.

The compound `N#Cc1cc([N+](=O)[O-])ccc1Oc1ccc(Cl)c(Cl)c1` came in with a melting point of 154 to 155 °C.

`O=C(CCc1cccnc1)NCCCC1CCN(C(c2ccccc2)c2ccccc2)CC1`: the melting point fell in the range of 109 to 110 °C.

Take `O=S1(=O)c2ccccc2NC2CCCN21` (configuration not stated): the melting point was in the range of 149 to 154 °C.

`O=C(NCC(=O)N1CCCC1)c1ccc(-c2ccc3nnn(Cc4ccc5ncccc5c4)c3n2)cc1F` gave a melting point of 175 to 177 °C.

The compound `CCc1cc(Cl)n2nccc2n1` gave a melting point of 66 to 68 °C.

As for `O=[N+]([O-])c1ccccc1Sc1ccncc1`, the melting point is 119 to 122 °C.

`CCN(CC)C(=O)c1cc(-c2ccc(OC)cc2)ccc1OC`: the melting point fell in the range of 58 to 60 °C.

As to `CC(=O)N(CCN1CCOCC1)C(C)C1(c2ccc(Cl)c(Cl)c2)CCC1` (configuration not stated), the melting point was 121 to 122 °C.

For `Cc1cc(C)c(C2CC(=O)C=C(O)C2)c(C)c1` (configuration not stated), the melting point stood at 165 °C.

Compound `Cc1ccc(C(=O)Oc2ccccc2)cc1` returned a melting point of 74 to 76 °C.

`CSc1ccc(NC(C#N)c2ccc(OC(F)F)cc2)cc1` (configuration not stated) registered a melting point of 98 to 99 °C.

For the compound `CC1OC(=Nc2nccs2)c2c1nc1ccccc1c2O` (configuration not stated), the melting point was > 270 °C.

As for `O=C(NC1CN2CCC1CC2)C1(O)c2ccccc2-c2ccccc21` (configuration not stated), the melting point worked out at 230 °C.

Take `CCc1ccc(C2C(=O)Oc3c2cc(C(C)(C)C)cc3C(C)(C)C)cc1` (configuration not stated): the melting point lay within 127 to 132 °C.

As for `CC(=O)OC1COC(Br)C(OC(C)=O)C1OC(C)=O` (configuration not stated), the melting point turned out to be 92 °C.

For `CCOC(=O)c1c(N)cc([N+](=O)[O-])cc1CC`, the melting point was 68 to 70 °C.

Consider `Cc1nc(-c2ccc(-c3cscn3)cc2)c(-c2ccc(S(N)(=O)=O)c(F)c2)o1`, for which the melting point was 116 to 118 °C.

Compound `COC(=O)c1cccc(NC(=S)Nc2cc(C(=O)Nc3ccccc3)ccc2OC)c1` yielded a melting point of 178 to 180 °C.

As to `Cc1c(-c2ccccc2)nn(C(C)C(=O)N(C)C)c1[N+](=O)[O-]` (configuration not stated), the melting point lay in the range of 141 to 143 °C.

Consider `COc1ccc(NC(=O)c2ccc(COc3ccc4c(c3)CCC(CCN3CCCCC3)C4)cc2)cc1` (configuration not stated), for which the melting point was 193 to 196 °C.

`O=C1Oc2ccccc2C1(Cc1ccccc1)Cn1cncn1` (configuration not stated) had a melting point of 150 °C.

Compound `CCOC(=O)NN=Cc1c[nH]c(Cc2ccccc2)n1` yielded a melting point of 184 to 185 °C.

The compound `COC(=O)c1cc2c(Cl)cc(C(=O)OC)c(Cl)c2c(Cl)c1Cl` had a melting point of 140 to 142 °C.

In turn, `CC(C)(Oc1ccc(OCc2noc(-c3ccc(C(C)(C)C)cc3)n2)cc1)C(=O)O` gave a melting point of 143 °C.

`NC(=O)c1cc2c(c(C(=O)O)c1)NCCC2`: the melting point is 268 to 269 °C.

For `CN(Cc1ccccc1)Cc1c(-c2ccc(NC(=O)C(C)(C)O)cc2)sc2c1c(=O)c(C(=O)c1ccccc1)cn2Cc1c(F)cccc1F`, the melting point was 222 to 223 °C.

`CC(C)(C)OC(=O)[C@@H](N)Cc1ccc(O)c(I)c1` showed a melting point of 158 to 159 °C.

In turn, `CSc1nn2c(=O)cc(CCl)nc2s1` returned a melting point of 168 to 169 °C.

As for `CCCn1c(=O)c2c(NC)n(C(C)=O)nc2n(Cc2cccc(Cl)c2)c1=O`, the melting point fell in the range of 169 to 171 °C.

The compound `OCc1c(CO)c(-c2ccc(Cl)cc2)n2c1Cc1ccccc1C2` registered a melting point of 170 to 171 °C.

For the compound `O=C(O)CN1C(=O)c2cccc3c(Cl)ccc(c23)C1=O`, the melting point was 260 °C.

On to `CCn1c(=O)ccc2ccccc21`, for which the melting point is 52 to 54 °C.

As to `COc1cc(C(=O)CBr)cc([N+](=O)[O-])c1O`, the melting point was 147 to 149 °C.

The compound `Cc1c(F)c(F)c(Cl)c2c1c(=O)c(C(=O)O)cn2-c1cc(N)c(F)cc1F` yielded a melting point of 271 to 274 °C.

`Cn1nc(COc2cccc3c2CN(C2CCC(=O)NC2=O)C3=O)cc1CN1CCOCC1` (configuration not stated) yielded a melting point of 125 to 127 °C.

Regarding `CC(C)(C)OC(=O)Nc1cccc(C(=O)OCOC(=O)C(C)(C)C)c1`, the melting point fell in the range of 88 to 89 °C.

For `N#CCCCOc1ccc(/C=C/C(=O)O)c(Oc2ncc(C(F)(F)F)cc2Cl)c1`, the melting point was 183 to 185 °C.

As for `COc1ccc(-c2cc(=Nc3c(C)cc(C)cc3C)n(C)c(NNC=O)n2)cc1OC`, the melting point fell in the range of 136 to 143 °C.

For `O=C(NCCc1ccccn1)Nc1cc(N2CC(c3ccccc3)CC2=O)ccn1` (configuration not stated), the melting point lay in the range of 202 to 204 °C.

For the compound `Cc1cc(C(=O)N2CCN(c3c(C#N)c(=O)n(Cc4ccc(F)cc4)c4ccccc34)CC2)no1`, the melting point was 123 to 135 °C.

For `CC#CCOc1cc(-c2ccc(F)cc2F)ncn1`, the melting point worked out at 63.9 °C.

`CCC1(C)C(=O)c2c(cc(O)c(Cl)c2Cl)C1c1ccccc1` (configuration not stated) had a melting point of 248 °C.

Take `O=C(C1CC1)N1CCN(C(=O)c2cc(C(F)(F)F)cc(C(F)(F)F)c2)[C@H](Cc2c[nH]c3ccccc23)C1`: the melting point is 109 to 114 °C.

For `COc1ccc(CSC(=S)N2C(CO)Cc3c([nH]c4ccccc34)C2C)cc1` (configuration not stated), the melting point fell in the range of 152 to 153 °C.

As to `O=C(NN=c1[nH]nc(Cl)c2ccccc12)c1ccccc1`, the melting point was found to be 162 °C.

`O=C(O)CCc1ccnc(-c2nc(=O)c3ccc(Cl)cc3s2)c1` returned a melting point of 263 to 264 °C.

`Cc1cccc2c1C(=O)N1CC[C@H]1c1c(C(=O)OC(C)(C)C)ncn1-2` came in with a melting point of 191 to 192 °C.

The compound `O=S(=O)(/C=C/c1ccc(Cl)cc1)Nc1cccc(Cl)c1` came in with a melting point of 118 to 120 °C.

In turn, `COC(=O)c1ccc(CC(C)N(CC(=O)c2ccc(OCc3ccccc3)c(NC(N)=O)c2)Cc2ccccc2)cc1` (configuration not stated) showed a melting point of 140 to 145 °C.

Compound `COC(=O)c1cccc(CN2CCOc3ccc(N)cc32)c1` registered a melting point of 167 to 171 °C.

Consider `O=C(O)CCC(=NOCc1ccc(OCc2csc(-c3ccccc3)n2)cc1)c1ccccc1`, for which the melting point fell in the range of 104 to 105 °C.

In the case of `CC1(C)[C@@H](C=C(F)F)[C@@H]1C(=O)OCc1c(F)c(F)c(F)c(-c2ccccc2)c1F` (relative stereo), the melting point lay within 69 to 72 °C.

With `C=CCOc1ccc2nc(S(N)(=O)=O)sc2c1`, the melting point fell in the range of 184 to 187 °C.

The compound `CC1(C)CC(N(CCCCCCN(c2nc(Cl)nc(Cl)n2)C2CC(C)(C)NC(C)(C)C2)c2nc(Cl)nc(Cl)n2)CC(C)(C)N1` gave a melting point of 161 to 163 °C.

On to `O=S1(=O)N=CN(C2CC2)c2c(Cl)cccc21`, for which the melting point was 159 to 160 °C.

In turn, `COc1cc2oc(-c3ccc(F)cc3)c(Br)c2c(OC)c1Br` had a melting point of 186 to 187 °C.

`COC(=O)C(=Cc1cc(OC)cc(OC)c1)c1ccc(Oc2ccc(C=O)cc2)cc1` yielded a melting point of 108 to 110 °C.

In turn, `CN1CCc2c(cc3ccccc3c2N)C1` displayed a melting point of 97 to 99 °C.

The compound `Cc1ccc(C(O)c2cc3ccncc3[nH]2)cc1` (configuration not stated) displayed a melting point of 78 to 82 °C.

As to `CNC(=S)Nc1cc(SC)ccc1N1CCOCC1`, the melting point was in the range of 132 to 133 °C.

`Cc1cccc2ncc(C(=O)N3CCCC3)c(=O)n12` showed a melting point of 132 to 134 °C.

Compound `CCCCNC(=O)[C@@H](C[C@H](O)[C@H](CC1CCCCC1)NC(=O)[C@H](Cc1cscn1)NC(=O)[C@@H](CC(=O)N1CCOCC1)Cc1ccccc1)C(C)C` returned a melting point of 161 to 163 °C.

Compound `COc1ccc2ncc(Cl)c(OC[C@@H]3CC[C@@H](NC(=O)OC(C)(C)C)CO3)c2c1` yielded a melting point of 173 °C.

The compound `O=C(O)c1cn(C2CC2)c2nc(N3CCC(n4ccnn4)CC3)c(F)cc2c1=O` gave a melting point of 246 to 248 °C.

Take `Cc1nc2c(NC(=O)C(C)(C)C)c(C(O)C=Cc3ccccc3)ccn2c1C` (configuration not stated): the melting point lay within 194 to 195 °C.

The compound `CN(C)c1ccc(NC(=O)N(C[C@H]2CC[C@H](CN(C(=O)Nc3ccc(N(C)C)cc3)C3CCCCC3)CC2)C2CCCCC2)cc1` had a melting point of 128 to 131 °C.

`Fc1cccc(F)c1-c1nn(-c2ccccc2C(F)(F)F)c(=S)o1` returned a melting point of 128 to 130 °C.

`O=C(NCCO)/C(=C/c1ccc(OC(F)F)cc1)NC(=O)c1ccc(OCCc2ccccc2)cc1` showed a melting point of 155 to 157 °C.

The compound `COc1cc(C=CC(=O)Nc2c(-c3ccccc3Cl)c3cc(C(C)C)ccc3n(C)c2=O)cc(OC)c1OC(C)=O` gave a melting point of 187 to 189 °C.

`CCOC(=O)c1cc(=O)c2c(ccc3nc(C(=O)OC)cc(O)c32)o1` came in with a melting point of 247 to 248 °C.

The compound `O=C(NCC12CC3CC(CC(C3)C1)C2)c1cc(-c2ccc(Cl)c(C(=O)O)n2)ccc1Cl` registered a melting point of 154 to 159 °C.

The compound `OCc1ccc(-c2ccc(-c3cn([C@H]4CN5CCC4CC5)nn3)s2)cc1` came in with a melting point of 253 °C.

The compound `N#Cc1cnn(-c2c(Cl)cc(Cl)cc2Cl)c1N` came in with a melting point of 208 to 210 °C.

In turn, `Cc1ccc2c(O)c(-c3cccc(Oc4ccccc4)c3)c(=O)[nH]c2c1` yielded a melting point of 299 to 300 °C.

Turning to `CN(C)CCC(=O)Nc1cccc([N+](=O)[O-])c1`, the melting point lay within 80 to 81 °C.

For `N=C(N)c1ccc(N2CCN(c3ccc(CCC(=O)O)cc3)S2(=O)=O)cc1`, the melting point is > 275 °C.

As to `Nc1ccc(-c2noc(-c3cnn4c(C(F)F)cc(-c5ccc(Cl)cc5)nc34)n2)cn1`, the melting point amounted to 254 °C.

In turn, `C[C@@H]1Cc2cc3c(cc2C(c2ccc(N)cc2)=NN1c1ccccn1)OCO3` yielded a melting point of 128 to 130 °C.

Consider `CCCCNC(=O)NS(=O)(=O)c1cccc2c1S(=O)(=O)N(C)C2`, for which the melting point is 162 to 164 °C.

Compound `CC(Cn1ncc2ccc(O)cc21)O[Si](C)(C)C(C)(C)C` (configuration not stated) gave a melting point of 169 to 174 °C.

As to `O=C(N[C@H]1CC[C@H](CCN2CCN(c3nccc4c3CCO4)CC2)CC1)c1cnc(N2CCOCC2)cn1`, the melting point came to 192 °C.

Consider `COc1cccc(OC2CN([C@H]3CC[C@@H](c4cc5ccccc5[nH]4)CC3)C2)c1`, for which the melting point was 126 to 127 °C.

Turning to `O=C(c1ccccc1)c1ccc(O)c2ncccc12`, the melting point was 115 to 116 °C.

With `N#Cc1cccc2c1nc(-c1c(F)cccc1F)n2Cc1c(F)cccc1F`, the melting point fell in the range of 153 to 155 °C.

For `CC(=O)CSc1nc2ccccc2n1C`, the melting point was in the range of 87 to 88 °C.

Turning to `CC(C)c1cccc(C(C)C)c1OCC(N)=O`, the melting point was 136 to 138 °C.
